≈ marks a conversion by molar mass, not a printed value. Where two headings read alike, the source gives them in different places.
Columns and labels:
[1] = system: Mycobacterium kansasii 235/80; assay: In vitro antimycobacterial MIC, M. kansasii 235/80; format: cell-based
[2] = system: Pseudomonas aeruginosa CCM 1961; assay: Antibacterial microdilution broth MIC, P. aeruginosa; format: cell-based; details: Pseudomonas aeruginosa, CCM1961; 48 h incubation; read-out: MIC PA 48 h
[3] = system: Staphylococcus epidermidis H 6966/08; assay: Antibacterial microdilution broth MIC, S. epidermidis; format: cell-based; details: Staphylococcus epidermidis, H6966/08
[4] = system: Mycobacterium avium 330/88; assay: In vitro antimycobacterial MIC, M. avium; format: cell-based
[5] = system: yeasts (Candida sp., T. asahii); assay: Antifungal activity against yeasts; format: cell-based; details: read-out: MIC for yeasts
[6] = system: Trichosporon asahii 1188; assay: Antifungal microdilution broth MIC, T. asahii; format: cell-based
[7] = system: Candida tropicalis 156; assay: Antifungal microdilution broth MIC, C. tropicalis; format: cell-based
[8] = system: M. kansasii 6509/96; assay: In vitro antimycobacterial MIC, M. kansasii clinical isolate; format: cell-based; details: Mycobacterium kansasii
[9] = system: Staphylococcus aureus CCM 4516/08; assay: Antibacterial microdilution broth MIC, S. aureus; format: cell-based; details: Staphylococcus aureus
[10] = system: Trichophyton interdigitale 445; assay: Antifungal microdilution broth MIC, T. interdigitale; format: cell-based
[11] = system: Mycobacterium tuberculosis 331/88 (H37Rv); assay: In vitro antimycobacterial MIC, M. tuberculosis; format: cell-based
[12] = system: Aspergillus fumigatus 231; assay: Antifungal microdilution broth MIC, A. fumigatus; format: cell-based
[13] = system: Candida albicans ATCC 44859; assay: Antifungal microdilution broth MIC, C. albicans; format: cell-based
[14] = system: Klebsiella pneumoniae D 11750/08
[15] = system: Lichtheimia corymbifera 272; assay: Antifungal microdilution broth MIC, L. corymbifera; format: cell-based; details: Lichtheimia corymbifera, 272; 48 h incubation; read-out: MIC LC 48 h
[16] = system: Candida glabrata 20/I; assay: Antifungal microdilution broth MIC, C. glabrata; format: cell-based; details: Nakaseomyces glabratus, 48 h incubation, read-out: MIC CG 48 h
[17] = system: Enterococcus faecalis J 14365/08; assay: Antibacterial microdilution broth MIC, E. faecalis; format: cell-based; details: Enterococcus faecalis, J14365/08; 48 h incubation; read-out: MIC EF 48 h
[18] = system: Candida krusei E28; assay: Antifungal microdilution broth MIC, C. krusei; format: cell-based; details: Pichia kudriavzevii
[19] = system: Escherichia coli CCM 4517; assay: Antibacterial microdilution broth MIC, E. coli; format: cell-based; details: Escherichia coli, CCM4517; 48 h incubation; read-out: MIC EC 48 h
[20] = system: ESBL-positive Klebsiella pneumoniae J 14368/08
[21] = 235/80, 168 h, 7 d incubation, read-out: MIC M. kansasii 235/80 7 d
[22] = 235/80, 336 h, 14 d incubation, read-out: MIC M. kansasii 235/80 14 d
[23] = 235/80, 504 h, 21 d incubation, read-out: MIC M. kansasii 235/80 21 d
[24] = 48 h incubation, read-out: MIC SE 48 h
[25] = 330/88, 336 h, 14 d incubation, read-out: MIC M. avium 330/88 14 d
[26] = 330/88, 504 h, 21 d incubation, read-out: MIC M. avium 330/88 21 d
[27] = 6509/96, 168 h, 7 d incubation, read-out: MIC M. kansasii 6509/96 7 d
[28] = 6509/96, 336 h, 14 d incubation, read-out: MIC M. kansasii 6509/96 14 d
[29] = 6509/96, 504 h, 21 d incubation, read-out: MIC M. kansasii 6509/96 21 d
[30] = 336 h, 14 d incubation, read-out: MIC Mtb. 331/88 14 d
[31] = 504 h, 21 d incubation, read-out: MIC Mtb. 331/88 21 d

Row | Structure (SMILES) | MIC [1, 21] [µM] | MIC [1, 22] [µM] | MIC [1, 23] [µM] | MIC [2] [µM] | MIC [3, 24] [µM] | MIC [4, 25] [µM] | MIC [4, 26] [µM] | MIC [8, 27] [µM] | MIC [8, 28] [µM] | MIC [8, 29] [µM] | MIC [11, 30] [µM] | MIC [11, 31] [µM] | MIC KP 24 h [14] [µM] | MIC KP 48 h [14] [µM] | MIC [15] [µM] | MIC [16] [µM] | MIC [17] [µM] | MIC [19] [µM] | MIC KP-E 24 h [20] [µM] | MIC KP-E 48 h [20] [µM] | also measured
1 | O=S(=O)(Nc1ncccn1)c1ccc(N=Cc2cc(O)ccc2O)cc1 [Compound 2i, 4-[(2,5-Dihydroxybenzylidene)amino]-N-(pyrimidin-2-yl)benzenesulfonamide] | 62.5 (≈ 23.1 µg/mL) | 125 (≈ 46.3 µg/mL) | 125 (≈ 46.3 µg/mL) | 500 (≈ 185 µg/mL) | 15.6 (≈ 5.79 µg/mL) | 500 (≈ 185 µg/mL) | 1000 (≈ 370 µg/mL) | 62.5 (≈ 23.1 µg/mL) | 125 (≈ 46.3 µg/mL) | 125 (≈ 46.3 µg/mL) | 125 (≈ 46.3 µg/mL) | 125 (≈ 46.3 µg/mL) | >500 | >500 | 500 (≈ 185 µg/mL) | 15.6 (≈ 5.79 µg/mL) | 250 (≈ 92.6 µg/mL) | 500 (≈ 185 µg/mL) | >500 | >500 | MIC ([3]; incubation time not given, read-out: MIC for S. epidermidis): 15.6 µM (≈ 5.79 µg/mL); MIC ([5]; range over Candida sp. and T. asahii): 15.6 to 31.2 µM (≈ 5.79 to 11.6 µg/mL); MIC ([6]; Trichosporon asahii, 1188, 48 h incubation, read-out: MIC TA 48 h): 15.6 µM (≈ 5.79 µg/mL); MIC ([7]; Candida tropicalis, 156, 48 h incubation, read-out: MIC CT 48 h): 15.6 µM (≈ 5.79 µg/mL); MIC ([9]; CCM 4516 / MRSA, S. aureus incl. MRSA, incubation time not given, read-out: MIC for S. aureus): 31.2 µM (≈ 11.6 µg/mL); MIC ([9]; CCM4516, 48 h incubation, read-out: MIC SA 48 h): 31.2 µM (≈ 11.6 µg/mL); MIC ([10]; Trichophyton interdigitale, 445, 72 h incubation, read-out: MIC TI 72 h): 1.95 µM (≈ 0.722 µg/mL); MIC ([10]; Trichophyton interdigitale, 445, 120 h incubation, read-out: MIC TI 120 h): 1.95 µM (≈ 0.722 µg/mL); MIC ([12]; Aspergillus fumigatus, 231, 24 h, read-out: MIC AF 24 h): 125 µM (≈ 46.3 µg/mL); MIC ([12]; Aspergillus fumigatus, 231, 48 h, read-out: MIC AF 48 h): 125 µM (≈ 46.3 µg/mL); MIC ([13]; ATCC44859, 48 h incubation, read-out: MIC CA 48 h): 15.6 µM (≈ 5.79 µg/mL); MIC ([18]; E28, 48 h incubation, read-out: MIC CK 48 h): 31.2 µM (≈ 11.6 µg/mL)
2 | O=S(=O)(Nc1ncccn1)c1ccc(N=Cc2cc(Cl)cc(Cl)c2O)cc1 [Compound 2m, 4-[(3,5-Dichloro-2-hydroxybenzylidene)amino]-N-(pyrimidin-2-yl)benzenesulfonamide] | 125 (≈ 52.9 µg/mL) | 250 (≈ 106 µg/mL) | 500 (≈ 212 µg/mL) | > 500 | 31.2 (≈ 13.2 µg/mL) | 250 (≈ 106 µg/mL) | 500 (≈ 212 µg/mL) | 62.5 (≈ 26.5 µg/mL) | 125 (≈ 52.9 µg/mL) | 250 (≈ 106 µg/mL) | 125 (≈ 52.9 µg/mL) | 125 (≈ 52.9 µg/mL) | >500 | >500 | 500 (≈ 212 µg/mL) | 31.2 (≈ 13.2 µg/mL) | > 500 | > 500 | 500 (≈ 212 µg/mL) | 500 (≈ 212 µg/mL) | MIC [5]: 31.2 to 125 µM (≈ 13.2 to 52.9 µg/mL); MIC ([6]; Trichosporon asahii, 1188, 24 h, read-out: MIC TA 24 h): 62.5 µM (≈ 26.5 µg/mL); MIC ([6]; Trichosporon asahii, 1188, 48 h, read-out: MIC TA 48 h): 62.5 µM (≈ 26.5 µg/mL); MIC ([7]; Candida tropicalis, 156, 24 h, read-out: MIC CT 24 h): 125 µM (≈ 52.9 µg/mL); MIC ([7]; Candida tropicalis, 156, 48 h, read-out: MIC CT 48 h): 125 µM (≈ 52.9 µg/mL); MIC ([9]; CCM4516, 24 h, read-out: MIC SA 24 h): 62.5 µM (≈ 26.5 µg/mL); MIC ([9]; CCM4516, 48 h, read-out: MIC SA 48 h): 62.5 µM (≈ 26.5 µg/mL); MIC ([10]; Trichophyton interdigitale, 445, 72 h, read-out: MIC TI 72 h): 125 µM (≈ 52.9 µg/mL); MIC ([10]; Trichophyton interdigitale, 445, 120 h, read-out: MIC TI 120 h): 125 µM (≈ 52.9 µg/mL); MIC ([12]; Aspergillus fumigatus, 231, 48 h incubation, read-out: MIC AF 48 h): 250 µM (≈ 106 µg/mL); MIC ([13]; ATCC44859, 24 h, read-out: MIC CA 24 h): 62.5 µM (≈ 26.5 µg/mL); MIC ([13]; ATCC44859, 48 h, read-out: MIC CA 48 h): 62.5 µM (≈ 26.5 µg/mL); MIC ([18]; E28, 24 h, read-out: MIC CK 24 h): 62.5 µM (≈ 26.5 µg/mL); MIC ([18]; E28, 48 h, read-out: MIC CK 48 h): 62.5 µM (≈ 26.5 µg/mL)

Reference: paper PMC6151383 (Molecules : A Journal of Synthetic Chemistry and Natural …, 2017)
